Source: patent publication US7923561B2 (Hoffmann-La Roche Inc., priority 2006, dated 2011)

The molecules below were run against T1, recombinant human 5-HT5A receptor (Homo sapiens, UniProt P47898) (assay: [3H]LSD radioligand binding assay, membranes of HEK-EBNA cells transiently expressing 5-HT5A receptors). Conditions: [3H]LSD approx. 1 nM, SPA beads, 120 min at room temperature; Ki from IC50 by Cheng-Prussoff equation.
T1 construct: expressed in transfected cells; host or cells: HEK-EBNA (Human Embryonic Kidney-EBNA) cells, transient cDNA expression, membranes
Procedure: A [^3H]LSD radioligand binding assay was used to determine the affinity of the compounds for the recombinant human 5-HT5A receptor, in membranes from transiently (cDNA) expressed 5-HT5A receptors in Human Embryonic Kidney-EBNA (HEK-EBNA) cells. Assay buffer consisted of Tris (50 mM) buffer containing 1 mM EGTA, 10 mM MgCl2 (pH 7.4) and 10 μM pargyline. The binding assay was carried out in 96-well-plates in the presence of [^3H]LSD (approximately 1 nM), approximately 2 μg/well of membrane protein, and 0.5 mg of Ysi-poly-1-lysine SPA beads in a final volume of 200 μl of buffer. Non-specific binding was defined using methiothepin 2 μM. Compounds were tested at 10 concentrations. All assays were conducted in duplicate and repeated at least two times. Assay plates were incubated for 120 min at room temperature before centrifugation. Bound ligand was determined using a Packard Topcount scintillation counter. IC50 values were calculated using a non-linear curve fitting program and Ki values calculated using the Cheng-Prussoff equation.

T1 sequence (P47898 whole entry): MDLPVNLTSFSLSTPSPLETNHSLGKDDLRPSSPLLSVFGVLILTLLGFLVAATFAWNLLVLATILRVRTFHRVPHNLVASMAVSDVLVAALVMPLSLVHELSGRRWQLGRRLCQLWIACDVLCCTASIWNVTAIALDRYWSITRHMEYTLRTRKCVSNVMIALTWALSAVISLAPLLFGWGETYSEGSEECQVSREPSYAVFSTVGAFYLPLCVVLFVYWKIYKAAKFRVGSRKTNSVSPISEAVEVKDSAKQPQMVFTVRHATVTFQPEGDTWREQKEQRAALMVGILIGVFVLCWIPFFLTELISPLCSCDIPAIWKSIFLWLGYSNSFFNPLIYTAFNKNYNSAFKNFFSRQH

Point of comparison: `O=S(=O)(Nc1cccc2nc(NC3CCCc4ccccc43)ccc12)c1cc(F)cc(F)c1` (racemic) [Example 62, rac-3,5-Difluoro-N-[2-(1,2,3,4-tetrahydro-naphthalen-1-ylamino)-quinolin-5-yl]-benzenesulfonamide], Ki 60.7 nM. Against it:
- Fc1cc(F)cc(CNc2cccc3nc(NC4COc5ccccc54)ccc23)c1 (racemic) [Example 17, rac-N5-(3,5-Difluoro-benzyl)-N2-(2,3-dihydro-benzofuran-3-yl)-quinoline-2,5-diamine] — 6.6-fold lower, 9.24 nM
- c1cncc(CNc2cccc3nc(NC4COc5ccccc54)ccc23)c1 (racemic) [Example 18, rac-N2-(2,3-Dihydro-benzofuran-3-yl)-N5-pyridin-3-ylmethyl-quinoline-2,5-diamine] — 2.7-fold lower, 22.1 nM
- COc1cccc2c1C(Nc1ccc3c(NS(=O)(=O)c4cc(F)c(F)c(F)c4)cccc3n1)CC2 (racemic) [Example 19, rac-3,4,5-Trifluoro-N-[2-(7-methoxy-indan-1-ylamino)-quinolin-5-yl]-benzenesulfonamide] — 8.5-fold lower, 7.18 nM
- COc1ccc2c(c1)C(Nc1ccc3c(NS(=O)(=O)c4ccc(F)cc4)cccc3n1)CC2 (racemic) [Example 21, rac-4-Fluoro-N-[2-(6-methoxy-indan-1-ylamino)-quinolin-5-yl]-benzenesulfonamide] — 3.8-fold lower, 15.8 nM
- COc1ccc2c(c1)C(Nc1ccc3c(NCc4cccnc4)cccc3n1)CC2 (racemic) [Example 23, rac-N2-(6-Methoxy-indan-1-yl)-N5-pyridin-3-ylmethyl-quinoline-2,5-diamine] — 2.6-fold lower, 23.5 nM
- COc1cccc2c1C(Nc1ccc3c(NS(=O)(=O)c4ccc(F)cc4)cccc3n1)CC2 (racemic) [Example 28, rac-4-Fluoro-N-[2-(7-methoxy-indan-1-ylamino)-quinolin-5-yl]-benzenesulfonamide] — 14-fold lower, 4.23 nM
- COc1ccc2c(c1)C(Nc1ccc3c(NCc4cc(F)cc(F)c4)cccc3n1)CC2 (racemic) [Example 29, rac-N5-(3,5-Difluoro-benzyl)-N2-(6-methoxy-indan-1-yl)-quinoline-2,5-diamine] — 6.2-fold lower, 9.72 nM
- COc1cccc2c1C(Nc1ccc3c(NCc4cccc5[nH]ccc45)cccc3n1)CC2 (racemic) [Example 57, rac-N5-(1H-Indol-4-ylmethyl)-N2-(7-methoxy-indan-1-yl)-quinoline-2,5-diamine] — 16-fold lower, 3.7 nM
- COc1cccc2c1C(Nc1ccc3c(NS(=O)(=O)c4cc(F)cc(F)c4)cccc3n1)CCC2 (racemic) [Example 59, rac 3,5-Difluoro-N-[2-(8-methoxy-1,2,3,4-tetrahydro-naphthalen-1-ylamino)-quinolin-5-yl]-benzenesulfonamide] — 4.5-fold lower, 13.4 nM
- O=S(=O)(Nc1cccc2nc(NC3CC4CCC3C4)ccc12)c1ccc(F)cc1 (racemic) [Example 60, rac-exo-N-[2-(Bicyclo[2.2.1]hept-2-ylamino)-quinolin-5-yl]-4-fluoro-benzenesulfonamide] — 3.2-fold higher, 197 nM
- COc1cccc2c1C(Nc1ccc3c(NS(=O)(=O)c4cccc5c4ccn5C)cccc3n1)CC2 (racemic) [Example 61, rac-1-Methyl-1H-indole-4-sulfonic acid [2-(7-methoxy-indan-1-ylamino)-quinolin-5-yl]-amide] — 13-fold lower, 4.66 nM
- COc1cccc2c1C(Nc1ccc3c(NCc4cnc[nH]4)cccc3n1)CCC2 (racemic) [Example 67, Rac-N5-(3H-Imidazol-4-ylmethyl)-N2-(8-methoxy-1,2,3,4-tetrahydro-naphthalen-1-yl)-quinoline-2,5-diamine] — 5.8-fold lower, 10.5 nM
- COc1cccc2c1C(Nc1ccc3c(NCc4c[nH]nn4)cccc3n1)CCC2 (racemic) [Example 68, Rac-N2-(8-Methoxy-1,2,3,4-tetrahydro-naphthalen-1-yl)-N5-(1H-[1,2,3]triazol-4-ylmethyl)-quinoline-2,5-diamine] — 4-fold lower, 15.3 nM
- COc1cccc2c1C(Nc1ccc3c(NCc4cccc5[nH]ccc45)cccc3n1)CCC2 (racemic) [Example 70, Rac-N5-(1H-Indol-4-ylmethyl)-N2-(8-methoxy-1,2,3,4-tetrahydro-naphthalen-1-yl)-quinoline-2,5-diamine] — 3.8-fold lower, 15.9 nM
